As usually defined, the EC50 is the concentration giving half of the maximal effect.

One data set deals with Caco-2 monolayers. The data set can be described thus: Transepithelial transport through Caco-2 monolayers. Conditions: apical pH 6.0 MES to basolateral pH 7.4 HEPES, 21 days post-seeding. (Passage across Caco-2 layers is used to estimate intestinal permeability.)
In a further data set the test system is cowpox virus. Type of data set: cell-based. Conditions: read-out: EC50 Cowpox.
For data set [1] the following is noted: cited from earlier work.
The conditions of data set [2]: rat.
In the next data set the test system is vaccinia virus. Type of data set: cell-based. Conditions: read-out: EC50 Vaccinia.
The target in data set [3] is T1, human PEPT1 transporter (HeLa/hPEPT1 cells) (Homo sapiens, UniProt P46059).
T1 sequence (P46059 1-708): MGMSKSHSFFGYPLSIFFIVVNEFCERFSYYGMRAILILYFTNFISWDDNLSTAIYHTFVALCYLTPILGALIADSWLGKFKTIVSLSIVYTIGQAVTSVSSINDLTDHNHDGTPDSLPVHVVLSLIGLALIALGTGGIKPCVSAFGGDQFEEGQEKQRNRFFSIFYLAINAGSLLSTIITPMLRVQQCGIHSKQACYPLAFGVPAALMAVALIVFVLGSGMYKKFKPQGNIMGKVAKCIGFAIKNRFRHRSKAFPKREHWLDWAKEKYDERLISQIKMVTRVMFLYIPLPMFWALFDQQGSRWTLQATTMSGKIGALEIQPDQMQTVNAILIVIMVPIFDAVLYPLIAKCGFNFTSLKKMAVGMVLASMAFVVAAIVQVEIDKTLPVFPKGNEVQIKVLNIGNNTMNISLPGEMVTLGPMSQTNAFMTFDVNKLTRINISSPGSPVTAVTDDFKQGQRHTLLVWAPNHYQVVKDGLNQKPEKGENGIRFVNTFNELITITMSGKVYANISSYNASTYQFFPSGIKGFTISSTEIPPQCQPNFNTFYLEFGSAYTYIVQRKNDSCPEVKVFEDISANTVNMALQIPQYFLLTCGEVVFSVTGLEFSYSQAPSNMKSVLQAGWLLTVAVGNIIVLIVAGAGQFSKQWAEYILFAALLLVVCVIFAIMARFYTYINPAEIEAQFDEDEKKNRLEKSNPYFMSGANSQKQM
Nature of the data set: Direct uptake in HeLa cells overexpressing hPEPT1. The settings on record: fold uptake over control cells not expressing PEPT1.

For data set [4] the following is noted: cited from earlier work. This is another data set of the same source.

Regarding “1-Beta-D-arabinofuranosyladenine [Vidarabine]”, in the data set with Caco-2 monolayers, the Caco-2 permeability worked out at 0.083 cm/s × 10^6. Also, the concentration for a half-maximal effect (EC50) was 12.6 µM in the data set on cowpox virus and 6.2 µM with vaccinia virus. Moreover, the Solubility in water in data set [1] is ~ 0.47 mg/ml. Also, the “T1/2 Plasma” value in data set [2] was 25.8 min.
In the data set on Caco-2 monolayers, `CC(C)[C@@H](N)C(=O)OC[C@H]1O[C@@H](n2cnc3c(N)ncnc32)[C@@H](O)[C@@H]1O` [Compound 7a] returned a Caco-2 permeability of 0.601 cm/s × 10^6.
With `CC(C)[C@H](N)C(=O)OC[C@H]1O[C@@H](n2cnc3c(N)ncnc32)[C@@H](O)[C@@H]1O` [Compound 7i], the “hPEPT1 control (uptake ratio HeLa/hPEPT1 over HeLa control)” value in data set [3] was 20.7.
In the case of `CC[C@H](C)[C@H](N)C(=O)OC[C@H]1O[C@@H](n2cnc3c(N)ncnc32)[C@@H](O)[C@@H]1O` [Compound 7k], in the data set with Caco-2 monolayers, the Caco-2 permeability worked out at 1.026 cm/s × 10^6. Further, the “hPEPT1 control (uptake ratio HeLa/hPEPT1 over HeLa control)” value in data set [3] amounted to 26.9.
With `Nc1ncnc2c1ncn2[C@@H]1O[C@H](COC(=O)[C@@H](N)Cc2ccccc2)[C@@H](O)[C@@H]1O` [Compound 7l], the Caco-2 permeability in the data set with Caco-2 monolayers is listed as 0.668 cm/s × 10^6.
As for `CC(C)[C@H](N)C(=O)OCCOCn1cnc2c(=O)[nH]c(N)nc21` [Valacyclovir], in data set [3], the “hPEPT1 control (uptake ratio HeLa/hPEPT1 over HeLa control)” value came to 19.0.
For `O=c1[nH]cnc2c1ncn2[C@@H]1O[C@H](CO)[C@@H](O)[C@@H]1O` [ara-H, ara-hypoxanthine], the “Fold less potent than vidarabine (antiviral activity)” value in data set [4] is listed as “at least 10 fold”.

The values are drawn from PMC2642980 (Bioorganic & medicinal chemistry letters, 2008).
